Source: PubChem BioAssay AID1358 (Sanford-Burnham Center for Chemical Genomics, 2008)
Activity calls are given as the source filed them.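 Rule for the calls: active = no phosphorylated p38 MAPK band on western blot after an ER stress trigger, matching the untreated control; inactive = the rest.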

test system: CSM14.1 cells, thapsigargin, phospho-p38 Western blot; experiment: inhibition of thapsigargin-induced p38 phosphorylation, late-stage follow-up, mechanism study for ER stress cell death project, CSM14.1 cells, Western blot (AID 1358)

SMILES	outcome
CCCOc1ccc(C2Nc3ccccc3NC3=C2C(=O)CC(c2ccc(OC)c(OC)c2)C3)cc1 (stereo unspecified)	active
COc1ccc(C2CC(=O)C3=C(C2)Nc2ccccc2NC3c2cccc(Br)c2)cc1OC (stereo unspecified)	active
COc1ccc(C2CC(=O)C3=C(C2)Nc2ccccc2NC3c2cccc(C(F)(F)F)c2)cc1OC (stereo unspecified)	active
CSc1ccc(C2Nc3ccccc3NC3=C2C(=O)CC(c2ccccc2)C3)cc1 (stereo unspecified)	active
CCOc1cc(C2Nc3ccccc3NC3=C2C(=O)CC(c2ccc(OC)cc2)C3)cc(Cl)c1O (stereo unspecified)	active
CC1(C)CC(=O)C2=C(C1)Nc1ccccc1NC2c1ccc(-c2ccccc2)cc1 (stereo unspecified)	active
O=C1CC(c2ccccc2)CC2=C1C(c1c(F)cccc1Cl)Nc1ccccc1N2 (stereo unspecified)	active
CCOc1cccc(C2Nc3ccccc3NC3=C2C(=O)CC(c2ccc(OC)cc2)C3)c1 (stereo unspecified)	active
COc1ccc(C2CC(=O)C3=C(C2)Nc2ccccc2NC3c2ccccc2C(F)(F)F)cc1OC (stereo unspecified)	active
COc1ccc(C2CC(=O)C3=C(C2)Nc2ccccc2NC3c2cc(C)ccc2C)cc1 (stereo unspecified)	active
COc1ccc(C2CC(=O)C3=C(C2)Nc2ccccc2NC3c2cccc(Oc3ccccc3)c2)cc1OC (stereo unspecified)	active
